This is an account of results in ChEMBL document CHEMBL5365427, “Discovery and Structural Optimization of Covalent ZAP-70 Kinase Inhibitors against Psoriasis” (J Med Chem, 2023).

SMILES strings stand for the structures. Calls of active or inactive are those of the source. The calls are words filed in the database; no cut-off is given here. Where only a bound is given, the exact number is not on record here.

The subject of one data set is Splenocyte. The experiment in a line: Immunosuppressive activity in BALB/c mouse Splenocyte assessed as inhibition of concanavalin A induced T-cell proliferation incubated for 48 hrs by [3H]-thymidine incorporation based beta scintillation counter analysis. Format: functional. For orientation: Incorporation of labelled thymidine or its analogues reports DNA synthesis.

Data set [1] concerns the target T1, Tyrosine-protein kinase SYK (Homo sapiens, UniProt P43405). Briefly: Inhibition of SYK (unknown origin) using ULight-TK peptide as substrate at 1 uM incubated for 120 mins in presence of ATP by Lance Ultra Kinase assay relative to control.
In data set [2] the target is T1, Tyrosine-protein kinase SYK. The experiment in a line: Inhibition of SYK (unknown origin) using ULight-TK peptide as substrate incubated for 120 mins in presence of ATP by Lance Ultra Kinase assay.
Data set [3] is described as follows: GSH reactivity of compound at pH 7.4 PBS buffer assessed as half life incubated for 180 min by HPLC-MS analysis. Format: physicochemical. The following applies: glutathione (GSH) in PBS buffer.
Data set [4] has as its target T2, Tyrosine-protein kinase ZAP-70 (Homo sapiens, UniProt P43403).
T2 sequence (P43403 whole entry): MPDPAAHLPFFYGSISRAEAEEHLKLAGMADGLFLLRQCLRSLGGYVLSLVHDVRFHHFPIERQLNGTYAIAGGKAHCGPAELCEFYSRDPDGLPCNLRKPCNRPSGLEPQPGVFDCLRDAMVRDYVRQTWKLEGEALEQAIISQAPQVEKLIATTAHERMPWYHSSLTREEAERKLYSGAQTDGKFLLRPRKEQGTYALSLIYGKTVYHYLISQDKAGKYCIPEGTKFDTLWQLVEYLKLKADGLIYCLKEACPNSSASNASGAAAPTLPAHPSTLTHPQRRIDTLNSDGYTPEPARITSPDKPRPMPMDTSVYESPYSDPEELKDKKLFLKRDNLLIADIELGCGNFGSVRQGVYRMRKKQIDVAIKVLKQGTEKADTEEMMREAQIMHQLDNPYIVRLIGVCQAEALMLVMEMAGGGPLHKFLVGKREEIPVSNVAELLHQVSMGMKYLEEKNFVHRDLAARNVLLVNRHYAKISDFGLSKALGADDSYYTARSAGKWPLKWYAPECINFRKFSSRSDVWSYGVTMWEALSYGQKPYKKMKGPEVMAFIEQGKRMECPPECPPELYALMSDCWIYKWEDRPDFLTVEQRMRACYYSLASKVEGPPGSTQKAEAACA
The experiment in a line: Inhibition of ZAP-70 (unknown origin) using ULight-TK peptide as substrate incubated for 120 mins in presence of ATP by Lance Ultra Kinase assay.

With `C=CC(=O)Nc1cc(CNc2nc(Nc3ccc(N4CCN(C5COC5)CC4)c(OC)c3)c(C(N)=O)c3nccn23)ccc1Cl`, in the data set with Splenocyte, the result was Active. In addition, in data set [1], the inhibition was 87.5%. In addition, the IC50 in data set [2] was found to be 0.598 µM.

As to `C=CC(=O)N1CCCc2c(CNc3nc(Nc4cc(OC)cc(OC)c4)c(C(N)=O)c4nccn34)cccc21`, the inhibition in data set [1] is 10.9%.

Consider `C=CC(=O)Nc1cc(CNc2nc(Nc3ccc(N4CCOCC4)c(OC(C)C)c3)c(C(N)=O)c3nccn23)ccc1Cl`, for which, in data set [1], the inhibition worked out at 27.6%.

Consider `C=CC(=O)Nc1cc(CNc2nc(Nc3ccc(N4CCOCC4)c(NC(C)=O)c3)c(C(N)=O)c3nccn23)ccc1Cl`, for which, in data set [1], the inhibition stood at 18.8%.

On to `C=CC(=O)Nc1cc(CNc2nc(Nc3ccc(N4CCN(C)CC4)c(OC)c3)c(C(N)=O)c3nccn23)ccc1Cl`, for which the result in the data set with Splenocyte was Active. Besides, in data set [1], the inhibition was 84%. Further, the IC50 in data set [2] amounted to 0.532 µM.

On to `C=CC(=O)Nc1cc(CNc2nc(Nc3cc(OC)cc(N4CCOCC4)c3)c(C(N)=O)c3nccn23)ccc1Cl`, for which the inhibition in data set [1] is 17.7%.

Turning to `C=CC(=O)Nc1cc(CNc2nc(Nc3cc(OC)cc(OC)c3)c(C(N)=O)c3nccn23)ccc1F`, the half-life in data set [3] worked out at 1.07 h. Also, the inhibition in data set [1] stood at 19.8%. The IC50 in data set [2] was greater than 10 µM.

For `C=CC(=O)Nc1cc(CNc2nc(Nc3ccc(N4CCOCC4)c(OCC)c3)c(C(N)=O)c3nccn23)ccc1Cl`, the outcome with Splenocyte was Active. Besides, the inhibition in data set [1] amounted to 82%. Also, the IC50 in data set [2] came to 0.641 µM.

As for `C=CC(=O)Nc1ccc(Cl)c(CNc2nc(Nc3cc(OC)cc(OC)c3)c(C(N)=O)c3nccn23)c1`, in data set [1], the inhibition was found to be 6.8%.

With `C=CC(=O)Nc1cc(CNc2nc(Nc3ccc(N4CCC(O)CC4)c(OC)c3)c(C(N)=O)c3nccn23)ccc1Cl`, the result with Splenocyte was Active. Besides, the inhibition in data set [1] was 47.1%. Further, in data set [2], the IC50 turned out to be 1.29 µM.

`C=CC(=O)Nc1cccc(CNc2nc(Nc3cc(OC)cc(OC)c3)c(C(N)=O)c3nccn23)c1Cl`: the inhibition in data set [1] turned out to be 13.2%.

As to `C=CC(=O)Nc1cc(CNc2nc(Nc3cc(OC)cc(OC)c3)c(C(N)=O)c3nccn23)ccc1Cl`, in data set [3], the half-life was determined as 1.35 h. In data set [1], the inhibition was 17.5%. In data set [2], the IC50 was greater than 10 µM.

Take `C=CC(=O)Nc1cc(F)cc(CNc2nc(Nc3cc(OC)cc(OC)c3)c(C(N)=O)c3nccn23)c1`: in data set [1], the inhibition is 0.8%.

In the case of `C=CC(=O)Nc1ccc(F)c(CNc2nc(Nc3cc(OC)cc(OC)c3)c(C(N)=O)c3nccn23)c1`, the inhibition in data set [1] was 6.2%.

Turning to `C=CC(=O)Nc1cccc(CNc2nc(Nc3cc(OC)cc(OC)c3)c(C(N)=O)c3nccn23)c1F`, the inhibition in data set [1] came to 44.7%. The IC50 in data set [2] amounted to 7 µM.

For the compound `C=CC(=O)Nc1cccc(CNc2nc(Nc3cc(OC)cc(OC)c3)c(C(N)=O)c3nccn23)c1`, the half-life in data set [3] was 4.23 h. Also, the inhibition in data set [1] came to 15.4%.

For the compound `C=CC(=O)Nc1cc(Cl)cc(CNc2nc(Nc3cc(OC)cc(OC)c3)c(C(N)=O)c3nccn23)c1`, in data set [1], the inhibition came out at 8.2%.

On to `COc1cc(Nc2nc(NCc3cccc(NC(=O)CCl)c3)n3ccnc3c2C(N)=O)cc(OC)c1`, for which the result in the data set with Splenocyte was Active. The IC50 is 0.0448 µM in data set [4] and greater than 10 µM in data set [2]. The inhibition in data set [1] was determined as 20.7%.

For `C=CC(=O)Nc1cc(CNc2nc(Nc3cc(OC)cc(OC)c3)c(C(N)=O)c3nccn23)ccn1`, the half-life in data set [3] was 0.383 h. Moreover, the inhibition in data set [1] was determined as 7%.

As to `C=CC(=O)Nc1cc(CNc2nc(Nc3cc(OC)cc(OC)c3)c(C(N)=O)c3nccn23)ccc1C(F)(F)F`, the inhibition in data set [1] stood at 0.5%.

As to `C=CC(=O)Nc1ccc2c(c1)CN(c1nc(Nc3cc(OC)cc(OC)c3)c(C(N)=O)c3nccn13)CC2`, the inhibition in data set [1] was determined as 22.3%.

Regarding `C=CC(=O)Nc1cc(CNc2nc(Nc3cc(OC)cc(OC)c3)c(C(N)=O)c3nccn23)ccc1O`, in data set [1], the inhibition was 9%.

Take `C=CC(=O)Nc1cc(CNc2nc(Nc3ccc(N4CCOCC4)cc3)c(C(N)=O)c3nccn23)ccc1Cl`: the inhibition in data set [1] is 61.4%. Moreover, in data set [2], the 50% inhibitory concentration (IC50) was determined as 5.53 µM.

Take `C=CC(=O)Nc1cc(CNc2nc(Nc3ccc(N4CCOCC4)cc3OC)c(C(N)=O)c3nccn23)ccc1Cl`: the inhibition in data set [1] worked out at 3.2%.

`C=CC(=O)Nc1cc(CNc2nc(Nc3ccc(N4CCCN(C)CC4)c(OC)c3)c(C(N)=O)c3nccn23)ccc1Cl`: the result with Splenocyte was Active. In addition, in data set [1], the inhibition worked out at 71.2%. In data set [2], the IC50 is 1.28 µM.

On to `C=CC(=O)Nc1cccc(C(C)Nc2nc(Nc3cc(OC)cc(OC)c3)c(C(N)=O)c3nccn23)c1` (stereo unspecified), for which, in data set [1], the inhibition was found to be 10.1%.

`C=CC(=O)Nc1cccc(CN(C)c2nc(Nc3cc(OC)cc(OC)c3)c(C(N)=O)c3nccn23)c1`: in data set [1], the inhibition was -5.9%.

In the case of `C=CC(=O)Nc1cc(CNc2nc(Nc3cc(OC)cc(OC)c3)c(C(N)=O)c3nccn23)ccc1C`, in data set [1], the inhibition was determined as 15.1%.

For `C=CC(=O)Nc1cc(CNc2nc(Nc3ccc(N4CCOCC4)c(CO)c3)c(C(N)=O)c3nccn23)ccc1Cl`, the inhibition in data set [1] came out at 40.2%. The IC50 in data set [2] is 4.28 µM.

One may read the inhibition as the relative decrease from the control value, in per cent. As usually defined, the IC50 is the concentration that inhibits the measured activity by half. Usually half-life stands for how long it takes for the measured level to halve.
